Measurements as given in ChEMBL document CHEMBL5543097, “Synthesis and structure-activity relationships of novel 14-membered 2-fluoro ketolides with structural modification at the C11 position” (Eur J Med Chem, 2024).
Converted amounts (≈) assume the structure as drawn.

Columns and labels:
Haemophilus influenzae [1] = experiment: Antibacterial activity against Haemophilus influenzae HIN 19-18 assessed as inhibition of bacterial growth incubated for 20 to 24 hrs by CLSI based broth microdilution method; assay type: functional; conditions: HIN 19-18, time 20-24 hrs
[2] = system: Staphylococcus epidermidis; experiment: Antibacterial activity against erythromycin-resistant Staphylococcus epidermidis 19-4 assessed as inhibition of visible bacterial growth incubated for 18 hrs by broth microdilution method; assay type: functional
Moraxella catarrhalis [3] = experiment: Antibacterial activity against Moraxella catarrhalis BCA 19-5 assessed as inhibition of bacterial growth incubated for 24 hrs by CLSI based broth microdilution method; assay type: functional; conditions: Moraxella catarrhalis, BCA 19-5, 24 h, read-out: MIC
Streptococcus pneumoniae [4] = experiment: Antibacterial activity against erythromycin-resistant Streptococcus pneumoniae SPN19-13 assessed as inhibition of visible bacterial growth incubated for 18 hrs by broth microdilution method; assay type: functional
Haemophilus influenzae [5] = experiment: Antibacterial activity against Haemophilus influenzae HIN 20-18 assessed as inhibition of bacterial growth incubated for 20 to 24 hrs by CLSI based broth microdilution method; assay type: functional; conditions: time 20-24 hrs
[6] = system: Staphylococcus epidermidis; experiment: Antibacterial activity against erythromycin-resistant Staphylococcus epidermidis 19-8 assessed as inhibition of visible bacterial growth incubated for 18 hrs by broth microdilution method; assay type: functional
[7] = system: Staphylococcus epidermidis; experiment: Antibacterial activity against erythromycin-resistant Staphylococcus epidermidis 19-9 assessed as inhibition of visible bacterial growth incubated for 18 hrs by broth microdilution method; assay type: functional
[8] = system: Staphylococcus epidermidis; experiment: Antibacterial activity against erythromycin-resistant Staphylococcus epidermidis 19-5 assessed as inhibition of visible bacterial growth incubated for 18 hrs by broth microdilution method; assay type: functional
Moraxella catarrhalis [9] = experiment: Antibacterial activity against Moraxella catarrhalis BCA 19-31 assessed as inhibition of bacterial growth incubated for 24 hrs by CLSI based broth microdilution method; assay type: functional; conditions: BCA 19-31, 24 h
Streptococcus pneumoniae [10] = experiment: Antibacterial activity against erythromycin-resistant Streptococcus pneumoniae SPN19-14 assessed as inhibition of visible bacterial growth incubated for 18 hrs by broth microdilution method; assay type: functional
[11] = Cytotoxicity against mouse AML12 cells assessed as reduction in cell viability incubated for 48 hrs by MTT assay; assay type: toxicity, cell-based
Streptococcus pneumoniae [12] = experiment: Antibacterial activity against erythromycin-resistant Streptococcus pneumoniae SPN19-8 assessed as inhibition of visible bacterial growth incubated for 18 hrs by broth microdilution method; assay type: functional
Haemophilus influenzae [13] = experiment: Antibacterial activity against Haemophilus influenzae HIN 19-15 assessed as inhibition of bacterial growth incubated for 20 to 24 hrs by CLSI based broth microdilution method; assay type: functional; conditions: time 20-24 hrs
Streptococcus pyogenes = experiment: Antibacterial activity against erythromycin-resistant Streptococcus pyogenes ATCC 19615 assessed as inhibition of visible bacterial growth incubated for 18 hrs by broth microdilution method; assay type: functional
Moraxella catarrhalis [14] = experiment: Antibacterial activity against Moraxella catarrhalis BCA 19-6 assessed as inhibition of bacterial growth incubated for 24 hrs by CLSI based broth microdilution method; assay type: functional; conditions: Moraxella catarrhalis, BCA 19-6, 24 h, read-out: MIC
[15] = system: Staphylococcus epidermidis; experiment: Antibacterial activity against erythromycin-resistant Staphylococcus epidermidis 19-6 assessed as inhibition of visible bacterial growth incubated for 18 hrs by broth microdilution method; assay type: functional
[16] = system: Staphylococcus epidermidis; experiment: Antibacterial activity against erythromycin-resistant Staphylococcus epidermidis 19-11 assessed as inhibition of visible bacterial growth incubated for 18 hrs by broth microdilution method; assay type: functional
Streptococcus agalactiae [17] = experiment: Antibacterial activity against erythromycin-resistant Streptococcus agalactiae 19-9 assessed as inhibition of visible bacterial growth incubated for 18 hrs by broth microdilution method; assay type: functional
Streptococcus agalactiae [18] = experiment: Antibacterial activity against erythromycin-resistant Streptococcus agalactiae 19-8 assessed as inhibition of visible bacterial growth incubated for 18 hrs by broth microdilution method; assay type: functional

Structure (SMILES)	MIC (Haemophilus influenzae [1])	MIC [2]	MIC (Moraxella catarrhalis [3])	MIC (Streptococcus pneumoniae [4])	MIC (Haemophilus influenzae [5])	MIC [6]	MIC [7]	MIC [8]	MIC (Moraxella catarrhalis [9])	MIC (Streptococcus pneumoniae [10])	CC50 at 48 h [11]	MIC (Streptococcus pneumoniae [12])	MIC (Haemophilus influenzae [13])	MIC (Streptococcus pyogenes)	MIC (Moraxella catarrhalis [14])	MIC [15]	MIC [16]	MIC (Streptococcus agalactiae [17])	MIC (Streptococcus agalactiae [18])
CC[C@H]1OC(=O)[C@@](C)(F)C(=O)[C@H](C)[C@@H](O[C@@H]2O[C@H](C)C[C@H](N(C)C)[C@H]2O)[C@](C)(OC)C[C@@H](C)C(=O)[C@H](C)[C@H]2N(CCCOC(=O)Nc3ccc(-c4ncccn4)cc3)C(=O)O[C@]12C	16 µg/mL (≈ 18.1 µM)	0.06 µg/mL (≈ 0.0677 µM)	0.25 µg/mL (≈ 0.282 µM)	0.5 µg/mL (≈ 0.564 µM)	> 16 µg/mL	0.125 µg/mL (≈ 0.141 µM)	0.125 µg/mL (≈ 0.141 µM)	< 0.03 µg/mL	0.25 µg/mL (≈ 0.282 µM)	0.25 µg/mL (≈ 0.282 µM)	20.4 µM	0.25 µg/mL (≈ 0.282 µM)	14 µg/mL (≈ 15.8 µM)	< 0.03 µg/mL	45 µg/mL (≈ 50.8 µM)	0.125 µg/mL (≈ 0.141 µM)	< 0.03 µg/mL	4 µg/mL (≈ 4.51 µM)	–
CC[C@H]1OC(=O)[C@H](C)[C@@H](O[C@H]2C[C@@](C)(OC)[C@@H](O)[C@H](C)O2)[C@H](C)[C@@H](O[C@@H]2O[C@H](C)C[C@H](N(C)C)[C@H]2O)[C@](C)(O)C[C@@H](C)C(=O)[C@H](C)[C@@H](O)[C@]1(C)O [ERYTHROMYCIN]	8 µg/mL (≈ 10.9 µM)	> 64 µg/mL	> 64 µg/mL	> 64 µg/mL	> 16 µg/mL	> 64 µg/mL	> 64 µg/mL	0.25 µg/mL (≈ 0.341 µM)	0.5 µg/mL (≈ 0.681 µM)	0.5 µg/mL (≈ 0.681 µM)	> 100 µM	> 64 µg/mL	8 µg/mL (≈ 10.9 µM)	< 0.03 µg/mL	64 µg/mL (≈ 87.2 µM)	32 µg/mL (≈ 43.6 µM)	64 µg/mL (≈ 87.2 µM)	16 µg/mL (≈ 21.8 µM)	0.125 µg/mL (≈ 0.17 µM)
CC[C@H]1OC(=O)[C@@](C)(F)C(=O)[C@H](C)[C@@H](O[C@@H]2O[C@H](C)C[C@H](N(C)C)[C@H]2O)[C@](C)(OC)C[C@@H](C)C(=O)[C@H](C)[C@H]2N(CCCOC(=O)Nc3ccc(Cl)cc3)C(=O)O[C@]12C	8 µg/mL (≈ 9.5 µM)	0.03 µg/mL (≈ 0.0356 µM)	9.12 µg/mL (≈ 10.8 µM)	0.125 µg/mL (≈ 0.148 µM)	16 µg/mL (≈ 19 µM)	0.03 µg/mL (≈ 0.0356 µM)	0.125 µg/mL (≈ 0.148 µM)	< 0.03 µg/mL	11.1 µg/mL (≈ 13.2 µM)	0.125 µg/mL (≈ 0.148 µM)	26 µM	0.25 µg/mL (≈ 0.297 µM)	8 µg/mL (≈ 9.5 µM)	< 0.03 µg/mL	0.25 µg/mL (≈ 0.297 µM)	< 0.03 µg/mL	< 0.03 µg/mL	1 µg/mL (≈ 1.19 µM)	–
CC[C@H]1OC(=O)[C@@](C)(F)C(=O)[C@H](C)[C@@H](O[C@@H]2O[C@H](C)C[C@H](N(C)C)[C@H]2O)[C@](C)(OC)C[C@@H](C)C(=O)[C@H](C)[C@H]2N(CCCOC(=O)Nc3ccc(Cl)cc3C)C(=O)O[C@]12C	4 µg/mL (≈ 4.67 µM)	0.03 µg/mL (≈ 0.035 µM)	0.125 µg/mL (≈ 0.146 µM)	0.125 µg/mL (≈ 0.146 µM)	16 µg/mL (≈ 18.7 µM)	0.125 µg/mL (≈ 0.146 µM)	< 0.03 µg/mL	< 0.03 µg/mL	0.125 µg/mL (≈ 0.146 µM)	0.125 µg/mL (≈ 0.146 µM)	12.8 µM	0.25 µg/mL (≈ 0.292 µM)	8 µg/mL (≈ 9.34 µM)	< 0.03 µg/mL	0.25 µg/mL (≈ 0.292 µM)	0.125 µg/mL (≈ 0.146 µM)	0.06 µg/mL (≈ 0.0701 µM)	0.5 µg/mL (≈ 0.584 µM)	–
CC[C@H]1OC(=O)[C@@](C)(F)C(=O)[C@H](C)[C@@H](O[C@@H]2O[C@H](C)C[C@H](N(C)C)[C@H]2O)[C@](C)(OC)C[C@@H](C)C(=O)[C@H](C)[C@H]2N(CCCOC(=O)Nc3cccc(F)c3C)C(=O)O[C@]12C	4 µg/mL (≈ 4.76 µM)	0.06 µg/mL (≈ 0.0714 µM)	0.125 µg/mL (≈ 0.149 µM)	0.125 µg/mL (≈ 0.149 µM)	16 µg/mL (≈ 19 µM)	0.06 µg/mL (≈ 0.0714 µM)	0.5 µg/mL (≈ 0.595 µM)	< 0.03 µg/mL	0.06 µg/mL (≈ 0.0714 µM)	0.125 µg/mL (≈ 0.149 µM)	36.7 µM	0.25 µg/mL (≈ 0.298 µM)	8 µg/mL (≈ 9.52 µM)	< 0.03 µg/mL	0.45 µg/mL (≈ 0.536 µM)	0.125 µg/mL (≈ 0.149 µM)	< 0.03 µg/mL	0.5 µg/mL (≈ 0.595 µM)	–
CC[C@H]1OC(=O)[C@@](C)(F)C(=O)[C@H](C)[C@@H](O[C@@H]2O[C@H](C)C[C@H](N(C)C)[C@H]2O)[C@](C)(OC)C[C@@H](C)C(=O)[C@H](C)[C@H]2N(CCCOC(=O)Nc3ccccc3Cl)C(=O)O[C@]12C	8 µg/mL (≈ 9.5 µM)	0.06 µg/mL (≈ 0.0712 µM)	0.25 µg/mL (≈ 0.297 µM)	0.25 µg/mL (≈ 0.297 µM)	16 µg/mL (≈ 19 µM)	0.125 µg/mL (≈ 0.148 µM)	0.25 µg/mL (≈ 0.297 µM)	< 0.03 µg/mL	1.12 µg/mL (≈ 1.34 µM)	0.25 µg/mL (≈ 0.297 µM)	36.2 µM	0.25 µg/mL (≈ 0.297 µM)	8 µg/mL (≈ 9.5 µM)	< 0.03 µg/mL	0.5 µg/mL (≈ 0.594 µM)	0.125 µg/mL (≈ 0.148 µM)	< 0.06 µg/mL	1 µg/mL (≈ 1.19 µM)	–
